Results taken from PubChem BioAssay AID190 (DTP/NCI, 2004).
Where “and” joins values, the source holds several entries; their conditions need not be identical. Equal entries are not always repeated. Toxic doses and inconclusive results are not listed.

System: AKR/Lw mice, AKR lymphoma ip, median survival T/C
Assay: NCI In Vivo Anticancer Drug Screen. Data for tumor model Lymphoma AKR (Transplanted) (intraperitoneal) in AKR/Lw mice
Settings: endpoint: median survival time, higher = longer survival
Method: The antitumor activity of compounds was measured in mice bearing transplantable tumors. Survival or tumor size were measured and the results are expressed as the measurement made in the treated group (T) divided by the measurement made in the vehicle treated control group (C). The tumor model used in this assay is Lymphoma AKR (Transplanted) (intraperitoneal) in AKR/Lw mice

[1] = dose: 100.0 mg/kg/injection, schedule: Q01DX001 (ip), vehicle: Klucel (hydroxypropylcellulose) (HPC)
[2] = dose: 100.0 mg/kg/injection, schedule: Q04DX003 (ip), vehicle: Klucel (hydroxypropylcellulose) (HPC)
[3] = dose: 200.0 mg/kg/injection, schedule: Q01DX001 (ip), vehicle: Klucel (hydroxypropylcellulose) (HPC)
[4] = dose: 200.0 mg/kg/injection, schedule: Q04DX003 (ip), vehicle: Klucel (hydroxypropylcellulose) (HPC)
[5] = dose: 400.0 mg/kg/injection, schedule: Q01DX001 (ip), vehicle: Klucel (hydroxypropylcellulose) (HPC)

CC1CCC(NC(=O)N(CCCl)N=O)CC1 (stereo not given)
T/C (dose: 1.25 mg/kg/injection, schedule: Q14DX003 (ip), vehicle: saline with Tween-80): 112 % of control
T/C (dose: 2.0 mg/kg/injection, schedule: Q04DX003 (ip), vehicle: saline with Tween-80): 106 % of control
T/C (dose: 2.0 mg/kg/injection, schedule: Q07DX004 (ip), vehicle: saline with Tween-80): 113 % of control
T/C (dose: 2.5 mg/kg/injection, schedule: Q01DX006 (ip), vehicle: saline with Tween-80): 93 % of control
T/C (dose: 2.5 mg/kg/injection, schedule: Q09DX002 (ip), vehicle: saline with Tween-80): 102 % of control
T/C (dose: 2.5 mg/kg/injection, schedule: Q10DX002 (ip), vehicle: saline with Tween-80): 108 % of control
T/C (dose: 2.5 mg/kg/injection, schedule: Q14DX003 (ip), vehicle: saline with Tween-80): 108 % of control and 112 % of control (2×)
T/C (dose: 3.0 mg/kg/injection, schedule: Q01DX001 (ip), vehicle: saline with Tween-80): 111 % of control
T/C (dose: 4.4 mg/kg/injection, schedule: Q04DX003 (ip), vehicle: saline with Tween-80): 92 % of control
T/C (dose: 4.4 mg/kg/injection, schedule: Q07DX004 (ip), vehicle: saline with Tween-80): 124 % of control
T/C (dose: 4.8 mg/kg/injection, schedule: Q01DX001 (ip), vehicle: saline with Tween-80): 116 % of control
T/C (dose: 5.0 mg/kg/injection, schedule: Q01DX006 (ip), vehicle: saline with Tween-80): 90 % of control
T/C (dose: 5.0 mg/kg/injection, schedule: Q09DX002 (ip), vehicle: saline with Tween-80): 101 % of control
T/C (dose: 5.0 mg/kg/injection, schedule: Q10DX002 (ip), vehicle: saline with Tween-80): 94 % of control
T/C (dose: 6.25 mg/kg/injection, schedule: Q07DX003 (ip), vehicle: saline): 106 % of control and 118 % of control
T/C (dose: 6.7 mg/kg/injection, schedule: Q07DX004 (ip), vehicle: saline with Tween-80): 118 % of control
T/C (dose: 7.5 mg/kg/injection, schedule: Q01DX006 (ip), vehicle: saline with Tween-80): 120 % of control
T/C (dose: 7.5 mg/kg/injection, schedule: Q09DX002 (ip), vehicle: saline with Tween-80): 101 % of control
T/C (dose: 8.0 mg/kg/injection, schedule: Q09DX002 (ip), vehicle: saline with Tween-80): 86 % of control
T/C (dose: 10.0 mg/kg/injection, schedule: Q01DX006 (ip), vehicle: saline with Tween-80): 112 % of control
T/C (dose: 10.0 mg/kg/injection, schedule: Q04DX003 (ip), vehicle: saline with Tween-80): 66 % of control
T/C (dose: 10.0 mg/kg/injection, schedule: Q04DX004 (ip), vehicle: Klucel (hydroxypropylcellulose) (HPC)): 86 % of control
T/C (dose: 10.0 mg/kg/injection, schedule: Q07DX004 (ip), vehicle: saline with Tween-80): 107 % of control
T/C (dose: 10.0 mg/kg/injection, schedule: Q09DX002 (ip), vehicle: saline with Tween-80): 107 % of control (2×) and 117 % of control
T/C (dose: 10.0 mg/kg/injection, schedule: Q10DX002 (ip), vehicle: saline with Tween-80): 116 % of control
T/C (dose: 11.0 mg/kg/injection, schedule: Q01DX001 (ip), vehicle: saline with Tween-80): 106 % of control
T/C (dose: 12.0 mg/kg/injection, schedule: Q01DX001 (ip), vehicle: saline): 103 % of control
T/C (dose: 13.5 mg/kg/injection, schedule: Q10DX002 (ip), vehicle: saline with Tween-80): 104 % of control
T/C (dose: 15.0 mg/kg/injection, schedule: Q04DX004 (ip), vehicle: Klucel (hydroxypropylcellulose) (HPC)): 94 % of control
T/C (dose: 15.0 mg/kg/injection, schedule: Q14DX003 (ip), vehicle: saline with Tween-80): 109 % of control
T/C (dose: 16.0 mg/kg/injection, schedule: Q01DX001 (ip), vehicle: saline with Tween-80): 111 % of control
T/C (dose: 16.0 mg/kg/injection, schedule: Q09DX002 (ip), vehicle: saline with Tween-80): 86 % of control
T/C (dose: 20.0 mg/kg/injection, schedule: Q04DX004 (ip), vehicle: Klucel (hydroxypropylcellulose) (HPC)): 86 % of control
T/C (dose: 25.0 mg/kg/injection, schedule: Q07DX003 (ip), vehicle: saline): 118 % of control and 121 % of control
T/C (dose: 27.0 mg/kg/injection, schedule: Q10DX002 (ip), vehicle: saline with Tween-80): 116 % of control
T/C (dose: 32.0 mg/kg/injection, schedule: Q09DX002 (ip), vehicle: saline with Tween-80): 80 % of control
T/C (dose: 36.0 mg/kg/injection, schedule: Q01DX001 (ip), vehicle: saline with Tween-80): 116 % of control
T/C (dose: 36.0 mg/kg/injection, schedule: Q01DX001 (ip), vehicle: saline): 262 % of control
T/C (dose: 45.0 mg/kg/injection, schedule: Q10DX002 (ip), vehicle: saline with Tween-80): 103 % of control
T/C (dose: 48.0 mg/kg/injection, schedule: Q01DX001 (ip), vehicle: saline): 100 % of control and 117 % of control
T/C (dose: 54.0 mg/kg/injection, schedule: Q10DX002 (ip), vehicle: saline with Tween-80): 55 % of control

O=C1CSC(=S)N1c1ccco1
T/C (dose: 25.0 mg/kg/injection, schedule: Q04DX003 (ip), vehicle: Klucel (hydroxypropylcellulose) (HPC)): 109 % of control
T/C (dose: 50.0 mg/kg/injection, schedule: Q01DX009 (ip), vehicle: Klucel (hydroxypropylcellulose) (HPC)): 97 % of control
T/C (dose: 50.0 mg/kg/injection, schedule: Q04DX003 (ip), vehicle: Klucel (hydroxypropylcellulose) (HPC)): 92 % of control
T/C [1]: 103 % of control
T/C (dose: 100.0 mg/kg/injection, schedule: Q01DX009 (ip), vehicle: Klucel (hydroxypropylcellulose) (HPC)): 95 % of control
T/C [2]: 90 % of control
T/C [3]: 96 % of control
T/C (dose: 200.0 mg/kg/injection, schedule: Q01DX009 (ip), vehicle: Klucel (hydroxypropylcellulose) (HPC)): 102 % of control
T/C [4]: 88 % of control

O=[N+]([O-])c1ccc(OCc2ccc(S(=O)(=O)F)c(Cl)c2)c(Cl)c1
T/C (dose: 3.0 mg/kg/injection, schedule: Q01DX009 (ip), vehicle: Klucel (hydroxypropylcellulose) (HPC)): 104 % of control
T/C (dose: 6.0 mg/kg/injection, schedule: Q01DX009 (ip), vehicle: Klucel (hydroxypropylcellulose) (HPC)): 88 % of control
T/C (dose: 12.0 mg/kg/injection, schedule: Q01DX009 (ip), vehicle: Klucel (hydroxypropylcellulose) (HPC)): 95 % of control
T/C (dose: 12.5 mg/kg/injection, schedule: Q01DX009 (ip), vehicle: Klucel (hydroxypropylcellulose) (HPC)): 100 % of control
T/C [1]: 97 % of control
T/C [2]: 90 % of control
T/C [3]: 97 % of control
T/C [4]: 88 % of control
T/C [5]: 90 % of control
T/C (dose: 400.0 mg/kg/injection, schedule: Q04DX003 (ip), vehicle: Klucel (hydroxypropylcellulose) (HPC)): 90 % of control

CC(/C=N/N=C(N)N)=N\N=C(N)N
T/C (dose: 1.5 mg/kg/injection, schedule: Q01DX015 (ip), vehicle: saline): 87 % of control
T/C (dose: 5.0 mg/kg/injection, schedule: Q01DX015 (ip), vehicle: saline): 90 % of control
T/C (dose: 6.25 mg/kg/injection, schedule: Q01DX015 (ip), vehicle: saline): 96 % of control
T/C (dose: 10.0 mg/kg/injection, schedule: Q01DX015 (ip), vehicle: saline): 90 % of control

NS(=O)(=O)c1ccc(N=Nc2nc3ncnc(SCc4cccs4)c3[nH]2)cc1
T/C [1]: 97 % of control
T/C [3]: 102 % of control
T/C [5]: 107 % of control

C/C=C(/C)N(C(C)=O)N(C(C)=O)c1ccc([N+](=O)[O-])cc1[N+](=O)[O-]
T/C [1]: 93 % of control
T/C [3]: 93 % of control
T/C [4]: 93 % of control
T/C [5]: 93 % of control

COC(=O)C1(C)CSCCC1=O (stereo not given)
T/C [1]: 91 % of control
T/C [3]: 105 % of control
T/C [5]: 96 % of control

CC12CCCC(=O)C1CC/C(=C\c1ccco1)C2=O (stereo not given)
T/C (dose: 100.0 mg/kg/injection, schedule: Q01DX001 (ip), vehicle: saline): 109 % of control
T/C (dose: 200.0 mg/kg/injection, schedule: Q01DX001 (ip), vehicle: saline): 100 % of control
T/C (dose: 400.0 mg/kg/injection, schedule: Q01DX001 (ip), vehicle: saline): 100 % of control

CN(C)S(=O)(=O)Nc1cc(Cl)c(NS(=O)(=O)N(C)C)cc1Cl
T/C [1]: 93 % of control
T/C [3]: 106 % of control
T/C [5]: 100 % of control
